In patent US8389764B2, “Urea and sulfamide derivatives as inhibitors of TAFIa” (Sanofi, priority 2006, dated 2013):
Numbered stars: 1 amine (or outer) side, 2 acyl side, 3 side chain; on linkers, the order of the positions; unused ones are H or OH. Square brackets hold non-standard residues; d marks the D form. Peptide text beside a SMILES is read from it. * marks the point of attachment. ξ: configuration not given here. dCha = N[C@H](CC1CCCCC1)C(=O)O; Phe(ol) = N[C@H](CO)Cc1ccccc1; Cbz = O=C(OCc1ccccc1)*; CO = O=C([*:1])[*:2]; ξV = CC(C)C(N)C(=O)O

Target: T1, TAFIa (Homo sapiens, UniProt Q96IY4)
T1 construct: purchased American Diagnostica 874TAFIA
T1 sequence (Q96IY4 115-423): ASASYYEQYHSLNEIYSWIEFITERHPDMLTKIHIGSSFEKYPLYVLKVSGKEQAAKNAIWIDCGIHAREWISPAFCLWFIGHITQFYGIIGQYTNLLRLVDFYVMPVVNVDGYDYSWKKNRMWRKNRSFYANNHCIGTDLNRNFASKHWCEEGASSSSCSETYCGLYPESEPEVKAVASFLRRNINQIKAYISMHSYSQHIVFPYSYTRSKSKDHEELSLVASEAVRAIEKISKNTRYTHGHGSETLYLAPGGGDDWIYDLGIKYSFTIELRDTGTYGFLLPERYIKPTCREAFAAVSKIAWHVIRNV
Assay: TAFIa inhibition, Actichrome plasma TAFI activity kit (American Diagnostica)
Type: biochemical
Conditions: 15 min preincubation at room temperature, read at 420 nm, duplicate determination of serial dilutions
Protocol: The enzymic reaction was started by adding 10 μl of TAFIa developer (prediluted 1:2 with assay buffer).
The IC50 values were calculated from the averaged values (duplicate determination) of serial dilutions of the substance with the aid of the Softmax Pro software (version 4.8; Molecular Devices).

Compound | IC50
CC1CCCC(NC(=O)[C@@H](NC(=O)[C@@H](CCCCNC(=O)OCc2ccccc2)NC(=O)N[C@@H](CCCCN)C(=O)O)C(C)C)C1 (stereo partly drawn) [Example 120] | 615 nM
CC1(C)[C@@H]2CC[C@@]1(C)[C@@H](NC(=O)[C@@H](CC1CCCCC1)NC(=O)N[C@@H](CCCN)C(=O)O)C2 [Example 124] | 18 nM
CC1CCCCC1NC(=O)[C@@H](NC(=O)[C@@H](CCCCNC(=O)OCc1ccccc1)NC(=O)N[C@@H](CCCCN)C(=O)O)C(C)C (stereo partly drawn) [Example 128] | 391 nM
COC(=O)[C@H](Cc1ccc(O)cc1)NC(=O)[C@@H](NC(=O)[C@@H](CC1CCCCC1)NC(=O)N[C@@H](CCCCN)C(=O)O)C(C)C [Example 133] ({Lys-CO}-[dCha]-Val-Tyr-OMe) | 636 nM
CC(C)C(NC(=O)C(NC(=O)[C@@H](CCCCNC(=O)OCc1ccccc1)NC(=O)N[C@@H](CCCNC(=N)N)C(=O)O)C(C)C)C(N)=O (stereo partly drawn) [Example 139] ({Arg-CO}-[dK](Cbz)-[ξV]-[ξV]-NH2) | 376 nM
CC(C)[C@H](NC(=O)[C@@H](NC(=O)[C@@H](CCCCNC(=O)OCc1ccccc1)NC(=O)N[C@@H](CCCCN)C(=O)O)C(C)C)C(N)=O [Example 140] ({Lys-CO}-[dK](Cbz)-Val-Val-NH2) | 318 nM
CC[C@@H](C)[C@H](NC(=O)[C@@H](CCCCNC(=O)OCc1ccccc1)NC(=O)N[C@@H](CCCCN)C(=O)O)C(N)=O [Example 142] | 10600 nM
CC1(C)[C@@H]2CC[C@@]1(C)[C@@H](NC(=O)[C@@H](CC1CCCCC1)NC(=O)N[C@@H](CSCCN)C(=O)O)C2 [Example 142a] | 0.7 nM
CC1(C)[C@@H]2CC[C@@]1(C)[C@@H](NC(=O)[C@@H](CC1CCCCC1)NC(=O)N[C@@H](CS(=O)(=O)CCN)C(=O)O)C2 [Example 142b] | 6 nM
CC1(C)[C@@H]2CC[C@@]1(C)[C@@H](NC(=O)[C@H](CC1CCC1)NS(=O)(=O)N[C@@H](CCCCN)C(=O)O)C2 [Example 150] | 357 nM
CC(C)CNC(=O)[C@@H](NC(=O)[C@H](CC1CCCCC1)NS(=O)(=O)N[C@@H](CCCCN)C(=O)O)C(C)C [Example 169] | 770 nM

The remaining molecules from weak to strong by IC50, led by results:

IC50 | Compound
22900 nM | CC(C)(C)OC(=O)[C@H](CCCCN)NS(=O)(=O)N[C@@H](CC1CCCCC1)C(=O)N[C@@H]1C[C@H]2CC[C@]1(C)C2(C)C [Example 186]
9760 nM | COC(=O)[C@@H](NC(=O)[C@@H](NC(=O)[C@H](Cc1ccccc1)NS(=O)(=O)N[C@@H](CCCCN)C(=O)O)C(C)C)C(C)C [Example 143, (S)-6-Amino-2-(3-{(S)-1-[(S)-1-((S)-1-methoxycarbonyl-2-methyl-propylcarbamoyl)-2-methyl-propylcarbamoyl]-2-phenyl-ethyl}-sulfamidyl)-hexanoic acid]
693 nM | CC(C)[C@H](NC(=O)[C@@H](CCCCNC(=O)OCc1ccccc1)NC(=O)N[C@@H](CCCCN)C(=O)O)C(=O)N[C@@H]1C[C@H]1c1ccccc1 [Example 127]
608 nM | CC(C)[C@H](NC(=O)[C@@H](CCCCNC(=O)OCc1ccccc1)NC(=O)N[C@@H](CCCCN)C(=O)O)C(=O)NCc1ccc(Cl)cc1 [Example 129]
532 nM | COC(=O)[C@H](Cc1c[nH]c2ccccc12)NC(=O)[C@@H](NC(=O)[C@@H](CCCCNC(=O)OCc1ccccc1)NC(=O)N[C@@H](CCCCN)C(=O)O)C(C)C [Example 134] ({Lys-CO}-[dK](Cbz)-Val-Trp-OMe)
525 nM | CC(C)[C@H](NC(=O)[C@@H](CCCCNC(=O)OCc1ccccc1)NC(=O)N[C@@H](CCCCN)C(=O)O)C(=O)N[C@H](C)c1ccccc1 [Example 122]
522 nM | CC(C)C(NC(=O)[C@@H](CC1CCCCC1)NC(=O)N[C@@H](CCCCN)C(=O)O)C(=O)N[C@H](CO)Cc1ccccc1 (stereo partly drawn) [Example 135] ({Lys-CO}-[dCha]-[ξV]-[Phe(ol)])
370 nM | CC(C)[C@H](NC(=O)[C@@H](CCCCNC(=O)OCc1ccccc1)NC(=O)N[C@@H](CCCCN)C(=O)O)C(=O)NCC(C)(C)C [Example 121]
204 nM | CC(C)[C@H](NC(=O)[C@@H](CCCCNC(=O)OCc1ccccc1)NC(=O)N[C@@H](CCCCN)C(=O)O)C(=O)NC(C)C(C)(C)C (stereo partly drawn) [Example 126]
140 nM | CC(C)[C@H](NC(=O)[C@@H](NC(=O)[C@@H](CC1CCCCC1)NC(=O)N[C@@H](CCCCN)C(=O)O)C(C)C)C(N)=O [Example 137] ({Lys-CO}-[dCha]-Val-Val-NH2)
